Drawing on patent US6831199B1, “Pyrimidine compounds and derivatives thereof” (G. D. Searle & Co., priority 1995, dated 2004), this text covers IC50 for 16 molecules.

Test [1] addresses T1, Human vitronectin receptor (αvβ3) (Homo sapiens, UniProt P05106+P06756).
T1 construct: Human vitronectin receptor (αvβ3) was purified from human placenta; from tissue; host or cells: human placenta
The test is described as follows: Vitronectin adhesion assay (solid phase receptor assay, competition with biotinylated vitronectin). Type of test: binding. The note with it: read-out: AvB3 IC50. How it is done:
VITRONECTIN ADHESION ASSAY
Assay buffer, OPD substrate tablets, and RIA grade BSA were obtained from Sigma (St. Louis, Mo.). Anti-biotin antibody was obtained from Calbiochem (La Jolla, Calif.). Linbro microtiter plates were obtained from Flow Labs (McLean, Va.). ADP reagent was obtained from Sigma (St. Louis, Mo.).
(§1) Solid Phase Receptor Assays
(§2) The purified human vitronectin receptor (αvβ3) was diluted from stock solutions to 1.0 μg/mL in Tris-buffered saline containing 1.0 mM Ca^++, Mg^++, and Mn^++, pH 7.4 (TBS^+++). The diluted receptor was immediately transferred to Linbro microtiter plates at 100 μL/well (100 ng receptor/well). The plates were sealed and incubated overnight at 4° C. to allow the receptor to bind to the wells. All remaining steps were at room temperature. The assay plates were emptied and 200 μL of 1% RIA grade BSA in TBS^+++(TBS^+++/BSA) were added to block exposed plastic surfaces. Following a 2 hour incubation, the assay plates were washed with TBS^+++ using a 96 well plate washer. Logarithmic serial dilution of the test compound and controls were made starting at a stock concentration of 2 mM and using 2 nM biotinylated vitronectin in TBS^+++/BSA as the diluent. This premixing of labeled ligand with test (or control) ligand, and subsequent transfer of 50 μL aliquots to the assay plate was carried out with a CETUS Propette robot; the final concentration of the labeled ligand was 1 nM and the highest concentration of test compound was 1.0×10^−4 M. The competition occurred for two hours after which all wells were washed with a plate washer as before. Affinity purified horseradish peroxidase labeled goat anti-biotin antibody was diluted 1:3000 in TBS^+++/BSA and 125 μL were added to each well. After 30 minutes, the plates were washed and incubated with OPD/H2O2 substrate in 100 mM/L Citrate buffer, pH 5.0. The plate was read with a microtiter plate reader at a wavelength of 450 nm and when the maximum-binding control wells reached an absorbance of about 1.0, the final A450 were recorded for analysis. The data were analyzed using a macro written for use with the EXCEL™ spreadsheet program. The mean, standard deviation, and % CV were determined for duplicate concentrations. The mean A450 values were normalized to the mean of four maximum-binding controls (no competitor added)(B-MAX). The normalized values were subjected to a four parameter curve fit algorithm [Rodbard et al., Int.

The target in test [2] is T2, Human fibrinogen receptor (αIIbβ3) (Homo sapiens, UniProt P05106+P08514).
T2 construct: Human fibrinogen receptor (αIIbβ3) was purified from outdated platelets; from tissue; host or cells: outdated human platelets
The test is described as follows: Purified IIb/IIIa receptor assay (solid phase receptor assay, competition with biotinylated vitronectin). Type of test: binding. As to conditions: read-out: IIb/IIIa IC50. How it is done: PURIFIED IIb/IIIa RECEPTOR ASSAY
Human fibrinogen receptor (αIIbβ3) was purified from outdated platelets. […] Biotinylated human vitronectin was prepared by coupling NHS-biotin from Pierce Chemical Company (Rockford, Ill.) to purified vitronectin as previously described. […] Anti-biotin antibody was obtained from Calbiochem (La Jolla, Calif.). Linbro microtiter plates were obtained from Flow Labs (McLean, Va.). ADP reagent was obtained from Sigma (St. Louis, Mo.).
as §1
as §2, with “human fibrinogen” for “human vitronectin”, “receptor (αIIbβ3)” for “receptor (αvβ3)”, “in TBS^+++ (TBS^+++/BSA)” for “in TBS^+++(TBS^+++/BSA)”, “with […]” for “with OPD/H2O2”, “mM/L citrate” for “mM/L Citrate”, “fit algorithm, [Robard” for “fit algorithm [Rodbard”

Each structure is given as a SMILES string. pIC50: −log10 of the molar value. Structures can show the parent of a compound that is named as a salt.

Take `N=C(N)Nc1cccc(C(=O)NCC(=O)NC(CC(=O)O)c2cc(Cl)cc(Br)c2)c1` (racemic) [Example 214, (±)β-[[2-[[[3-[(aminoiminomethyl)amino]phenyl]carbonyl]amino]acetyl]amino]-3-bromo-5-chlorobenzenepropanoic acid, trifluoroacetate salt]: the pIC50 in test [1] was 8.63; in test [2], 6.34.
In the case of `O=C(O)CC(NC(=O)CNC(=O)c1cccc(NC2=NCCCN2)c1)c1cc(Cl)cc(Br)c1` (racemic) [Example 215, (±)3-bromo-5-chloro-β-[[2-[[[3-[(1,4,5,6-tetrahydropyrimidin-2-yl)amino]phenyl]carbonyl]amino]acetyl]amino]-benzenepropanoic acid, trifluoroacetate salt], the pIC50 in test [1] was 9.39; in test [2] it was 6.18.
With `N=C(N)Nc1cc(C(=O)NCC(=O)NC(CC(=O)O)c2cc(Cl)cc(Br)c2)cc(C(F)(F)F)c1` (racemic) [Example 216, (±)β-[[2-[[[3-[(aminoiminomethyl)amino]-5-(trifluoromethyl)phenyl]carbonyl]amino]acetyl]amino]-3-bromo-5-chlorobenzenepropanoic acid, trifluoroacetate salt], the pIC50 in test [1] was 9.00; in test [2], 6.49.
The like results for `O=C(CNC(=O)c1cccc(NC2=NCCCN2)c1)NC(CC(=O)OCCOCCOCCOCCO)c1cc(Cl)cc(Cl)c1` (racemic) [Example 217, (±)[2-[2-[2-(2-hydroxyethoxy)ethoxy]ethoxy]ethyl]3,5-dichloro-β-[[2-[[[3-[(1,4,5,6-tetrahydropyrimidin-2-yl)amino]phenyl]carbonyl]amino]acetyl]amino]benzenepropanoate, trifluoroacetate salt] were, in that order, 7.13 and 4.10.
The like results for `N=C(N)Nc1cccc(C(=O)NCC(=O)NC(CC(=O)O)c2cc(Br)cc(I)c2)c1` (racemic) [Example 219, (±)β-[[2-[[[3-[(aminoiminomethyl)amino]phenyl]carbonyl]amino]acetyl]amino]-3-bromo-5-iodobenzenepropanoic acid trifluoroacetate salt] were, in that order, 8.64 and 6.60.
Take `N=C(N)Nc1cccc(C(=O)NCC(=O)NC(CC(=O)O)c2ccc3c(c2)Cc2ccccc2-3)c1` (racemic) [Example 224, (±)β-[[2-[[[3-[(aminoiminomethyl)amino]phenyl]carbonyl]amino]acetyl]amino]-9H-fluorene-2-propanoic acid, trifluoroacetate salt]: the figures for the pIC50 in test [1] and in test [2] were 9.15 and 7.59, respectively.
In the case of `N=C(N)Nc1cccc(C(=O)NCC(=O)NC(CC(=O)O)C2CCCCC2)c1` (racemic) [Example 229, (±)β-[[2-[[[3-[(aminoiminomethyl)amino]phenyl]carbonyl]amino]acetyl]amino]cyclohexanepropanoic acid, trifluoroacetate salt, monohydrate], the pIC50 is 7.41 in test [1] and 4.97 in test [2].
The like results for `N=C(N)Nc1cccc(C(=O)NCC(=O)NC(CC(=O)O)c2cc(Cl)ccc2O)c1` (racemic) [Example 231, (±)β-[[2-[[[3-[(aminoiminomethyl)amino]phenyl]carbonyl]amino]acetyl]amino]-5-chloro-2-hydroxybenzenepropanoic acid, trifluoroacetate salt, monohydrate] were, in that order, 8.52 and 6.37.
The like results for `N=C(N)Nc1cccc(C(=O)NCC(=O)NC(CC(=O)O)c2cc(N)ccc2O)c1` (racemic) [Example 234, (±)5-amino-β-[[2-[[[3-[(aminoiminomethyl)amino]phenyl]carbonyl]amino]acetyl]amino]-2-hydroxybenzenepropanoic acid, bis(trifluoroacetate)salt, monohydrate] were, in that order, 7.05 and 6.08.
The like results for `N=C(N)Nc1cccc(C(=O)NCC(=O)NC(CC(=O)O)c2cncc(Br)c2)c1` (racemic) [Example 235, (±)β-[[2-[[[3-[(aminoiminomethyl)amino]phenyl]carbonyl]amino]acetyl]amino]-5-bromopyridine-3-propanoic acid, bis(trifluoroacetate)salt, monohydrate] were, in that order, 9.27 and 7.52.
Consider `O=C(O)CC(NC(=O)CNC(=O)c1cccc(NC2=NCCCN2)c1)c1cc(Cl)cc(Br)c1O` (racemic) [Example 236, (±)3-bromo-5-chloro-2-hydroxy-β-[[2-[[[3-[(1,4,5,6-tetrahydropyrimidin-2-yl)amino]phenyl]carbonyl]amino]acetyl]amino]benzenepropanoic acid, trifluoroacetate salt, monohydrate], for which the values for the pIC50 in test [1] and in test [2] were 9.28 and 5.90, respectively.
The like results for `O=C(O)CC(NC(=O)CNC(=O)c1cccc(NC2=NCCCN2)c1)c1cc(Cl)cc(Cl)c1O` (racemic) [Example 237, (±)3,5-dichloro-2-hydroxy-β-[[2-[[[3-[(1,4,5,6-tetrahydropyrimidin-2-yl)amino]phenyl]carbonyl]amino]acetyl]amino]benzenepropanoic acid, trifluoroacetate salt, monohydrate] were, in that order, 9.24 and 5.71.
The like results for `O=C(O)CC(NC(=O)CNC(=O)c1cccc(NC2=NCCN2)c1)c1cc(Cl)cc(Cl)c1O` (racemic) [Example 238, trifluoroacetate salt, monohydrate] were, in that order, 9.04 and 6.19.
Regarding `CSc1cccc(C(CC(=O)O)NC(=O)CNC(=O)c2cccc(NC(=N)N)c2)c1` (racemic) [Example 245, (±)β-[[2-[[[3-[(aminoiminomethyl)amino]phenyl]carbonyl]amino]acetyl]amino]-3-(methylthio)benzenepropanoic acid, trifluoroacetate salt], the pIC50 in test [1] is 9.02; in test [2], 6.87.
The like results for `Cc1cccc(C(CC(=O)O)NC(=O)CNC(=O)c2cccc(NC(=N)N)c2)n1` (racemic) [Example 246, (±)β-[[2-[[[3-[(aminoiminomethyl)amino]phenyl]carbonyl]amino]acetyl]amino]-6-methylpyridine-2-propanoic acid, bis(trifluoroacetate)salt] were, in that order, 8.14 and 6.10.
The like results for `COc1cc(C(CC(=O)O)NC(=O)CNC(=O)c2cccc(NC(=N)N)c2)cc(Br)c1OC` (racemic) [Example 262, (±)β-[[2-[[[3-[(aminoiminomethyl)amino]phenyl]carbonyl]amino]acetyl]amino]-3-bromo-4,5-dimethoxybenzenepropanoic acid, trifluoroacetate salt] were, in that order, 8.91 and 6.76.
